# Assays:
# gut microbiome [1] = assay: Non pH-controlled anaerobic faecal cultures, gas production; type: cell-based; settings: 6 donors, FIG. 1
# Description: Non pH-controlled, anaerobic, faecal cultures were investigated to evaluate the rate of gas production and cumulative gas production over 24 h in the presence of each test substrate.
# (§1) All carbohydrates were tested in parallel, using the same faecal sample from a healthy donor. Fermentations were repeated using the faecal samples of each of 6 donors. Faeces in the absence of test substrate were used as the negative control in each run.
# gut microbiome [2] = assay: pH-controlled anaerobic faecal cultures, organic acid production; type: cell-based; settings: FIG. 3
# Description: pH-controlled, anaerobic, faecal cultures were carried out to evaluate the impact of each test carbohydrate on gut microbiome composition and activity (organic acid production). The test carbohydrates were as follows: Inulin, Fructooligosaccharides (FOS), Xylooligosaccharides (XOS), gentiooligosaccharides (GeOS) and cellobiose.
# as §1
structure (smiles),measurement,setting,value
"O=C[C@H](O)[C@@H](O)[C@H](O[C@@H]1O[C@H](CO)[C@@H](O)[C@H](O)[C@H]1O)[C@H](O)CO [Cellobiose, cellobiose]",rate of gas production,gut microbiome [1],significantly higher compared to all test substrates
same,lactate production / accumulation,gut microbiome [2],high levels
